Where a SMILES comes first, the peptide text is derived from it.
Legend:
[1] = Stability assay in rat plasma and human serum (metabolic half life); settings: Half life (h), 37° C., matrix of the values not specified
Experimental: 300 μL rat plasma and human serum (Sigma Aldrich) was incubated at 37° C. for 30 min. 50 mL of peptide sample (0.3 mM) in 0.1 M phosphate buffer, pH 7.2 was added to the rat plasma and human serum. The vortexed mixture was incubated at 37° C.

[2] = phosphate buffer pH 7.4, 37° C., over a period of 48 h
hV1aR [3] = molecular target: T1, hV1aR (Homo sapiens, UniProt P37288); experiment: Functional IP-One HTRF assay; type: cell-based
T1 construct: expressed in transfected cells; host or cells: COS-1
Experimental: (§1) Cells were lysed by the addition of the HTRF reagents (the europium cryptate-labeled anti-IP1 antibody and the d2-labeled IP1 analogue) diluted in lysis buffer. The assays were incubated for 1 h at room temperature.

hV1aR [4] = molecular target: T1, hV1aR; experiment: Functional FLIPR assay (calcium signalling); type: cell-based
Experimental: (§2) To allow for complete de-esterification of the dye, cells were washed 5-10 min with PSS before transfer to a FLIPR^TETRA (Molecular Devices, Sunnyvale, Calif.) fluorescent plate reader. […] The baseline fluorescence was set to a minimum of 1000 arbitrary fluorescence units by adjusting camera gain and excitation intensity. Compounds were added as 3× concentrated stock solutions in PSS, with 10 baseline fluorescence readings prior to compound addition followed by fluorescence reading every second for 180 s.
(§3) As previously described, raw fluorescence data was converted to ΔF/F values by subtracting baseline fluorescence readings from subsequent time points and dividing by baseline fluorescence values. […] A 4-parameter Hill equation with Hill coefficient=1 was fitted to the data using GraphPad Prism (Version 4.00, San Diego, Calif.).

hOTR [5] = molecular target: T2, hOTR (Homo sapiens, UniProt P30559); experiment: Functional IP-One HTRF assay; type: cell-based; settings: for Emax: read-out: hOTR Emax
T2 construct: expressed in transfected cells; host or cells: COS-1
T2 sequence (P30559 1-389): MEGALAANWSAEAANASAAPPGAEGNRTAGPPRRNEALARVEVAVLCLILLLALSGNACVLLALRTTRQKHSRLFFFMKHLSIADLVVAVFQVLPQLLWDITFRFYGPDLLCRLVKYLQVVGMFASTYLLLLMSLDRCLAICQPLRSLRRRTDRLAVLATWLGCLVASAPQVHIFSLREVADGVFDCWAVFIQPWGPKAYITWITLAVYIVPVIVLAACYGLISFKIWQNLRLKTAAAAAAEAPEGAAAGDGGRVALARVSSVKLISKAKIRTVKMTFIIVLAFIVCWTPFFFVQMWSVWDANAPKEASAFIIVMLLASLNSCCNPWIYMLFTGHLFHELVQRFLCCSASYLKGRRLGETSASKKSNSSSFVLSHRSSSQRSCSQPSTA
Experimental: as §1

hV1bR [6] = molecular target: T3, hV1bR (Homo sapiens, UniProt P47901); experiment: Functional IP-One HTRF assay; type: cell-based
T3 construct: expressed in transfected cells; host or cells: COS-1
T3 sequence (P47901 1-424): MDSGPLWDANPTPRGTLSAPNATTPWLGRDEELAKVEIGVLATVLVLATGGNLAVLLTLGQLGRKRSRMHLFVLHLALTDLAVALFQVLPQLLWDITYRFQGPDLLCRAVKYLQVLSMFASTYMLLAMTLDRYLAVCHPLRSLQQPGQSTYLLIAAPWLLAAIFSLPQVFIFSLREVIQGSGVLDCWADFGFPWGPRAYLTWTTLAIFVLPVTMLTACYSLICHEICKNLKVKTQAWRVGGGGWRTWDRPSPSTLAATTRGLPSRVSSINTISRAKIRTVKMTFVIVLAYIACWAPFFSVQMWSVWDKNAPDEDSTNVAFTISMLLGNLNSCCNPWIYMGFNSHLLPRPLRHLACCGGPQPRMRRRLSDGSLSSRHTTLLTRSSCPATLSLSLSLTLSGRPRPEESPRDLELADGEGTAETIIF
Experimental: as §1

hOTR [7] = molecular target: T2, hOTR; experiment: Radioligand binding assay, displacement of 3H-OT, COS-1 membranes
hOTR [8] = molecular target: T2, hOTR; experiment: Functional FLIPR assay (calcium signalling); type: cell-based
Experimental: as §2, §3

hV1bR [9] = molecular target: T3, hV1bR; experiment: Functional FLIPR assay (calcium signalling); type: cell-based
Experimental: as §2, §3

hV1bR [10] = molecular target: T3, hV1bR; experiment: Radioligand binding assay, displacement of 3H-AVP, COS-1 membranes

T1 sequence (P37288 whole entry): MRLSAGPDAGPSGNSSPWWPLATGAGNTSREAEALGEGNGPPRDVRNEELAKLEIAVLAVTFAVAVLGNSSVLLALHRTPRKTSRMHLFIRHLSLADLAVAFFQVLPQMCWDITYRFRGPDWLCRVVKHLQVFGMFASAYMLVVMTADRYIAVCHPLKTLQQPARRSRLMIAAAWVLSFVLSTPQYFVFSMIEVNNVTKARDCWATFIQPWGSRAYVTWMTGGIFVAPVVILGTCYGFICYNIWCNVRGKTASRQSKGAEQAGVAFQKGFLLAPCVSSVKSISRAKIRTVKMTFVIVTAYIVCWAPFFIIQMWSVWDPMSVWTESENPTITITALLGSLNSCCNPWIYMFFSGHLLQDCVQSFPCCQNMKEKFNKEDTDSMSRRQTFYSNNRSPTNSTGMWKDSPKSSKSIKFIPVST

| SMILES | Emax (hV1aR [3]) | Emax (hV1aR [4]) | Emax (hOTR [5]) | degradation in phosphate buffer [2] | Emax (hV1bR [6]) | other results |
| --- | --- | --- | --- | --- | --- | --- |
| NC(=O)CC[C@@H]1NC(=O)[C@H](Cc2ccccc2)NC(=O)[C@H](Cc2ccc(O)cc2)NC(=O)[C@@H](N)CSSC[C@@H](C(=O)N2CCC[C@H]2C(=O)N[C@@H](CCCN=C(N)N)C(=O)NCC(N)=O)NC(=O)[C@H](CC(N)=O)NC1=O [AVP, arginine-vasopressin] |  |  |  | no degradation was observed |  | half-life at 0.043 mM [1]: 2 h |
| CC[C@H](C)[C@@H]1NC(=O)[C@H](Cc2ccc(O)cc2)NC(=O)[C@@H](N)CSSC[C@@H](C(=O)N2CCC[C@H]2C(=O)N[C@@H](CC(C)C)C(=O)NCC(N)=O)NC(=O)[C@H](CC(N)=O)NC(=O)[C@H](CCC(N)=O)NC1=O [OT, Oxytocin] | 79 ± 9% | 71% |  | no degradation was observed |  |  |
| CC[C@H](C)[C@@H]1NC(=O)[C@H](Cc2ccc(O)cc2)NC(=O)[C@@H](N)CSSC[C@@H](C(=O)N2CCC[C@H]2C(=O)N[C@@H](CC(C)C)C(=O)NCC(=O)O)NC(=O)[C@H](CC(N)=O)NC(=O)[C@H](CCC(N)=O)NC1=O [[S—S]-OT-OH, OT-OH] | 77 ± 24% |  | 82 ± 13% |  | 96 ± 6% | drop in functional efficacy at the hOTR (hOTR [5]; compared to OT): 10-30 fold; drop in functional efficacy at the hV1bR (hV1bR [6]; compared to OT): 10-30 fold |

Further lines, with some results ahead:

| Emax (hV1aR [3]) | Emax (hV1aR [4]) | Emax (hOTR [5]) | SMILES | degradation in phosphate buffer [2] | Emax (hV1bR [6]) | other results |
| --- | --- | --- | --- | --- | --- | --- |
| 75 ± 8% |  | 64 ± 14% | CC[C@H](C)[C@@H]1NC(=O)[C@H](Cc2ccc(O)cc2)NC(=O)[C@@H](N)CCSC[C@@H](C(=O)N2CCC[C@H]2C(=O)N[C@@H](CC(C)C)C(=O)NCC(N)=O)NC(=O)[C@H](CC(N)=O)NC(=O)[C@H](CCC(N)=O)NC1=O [[CH2—S]-OT] (HELM PEPTIDE1{[N[C@@H](CC[*:3])C(=O)[*:2]].Y.I.Q.N.C.P.L.G.[am]}$PEPTIDE1,PEPTIDE1,1:R3-6:R3$$$V2.0; N-terminus and C-terminus assumed) |  |  |  |
|  | 54% | 100% | CC[C@H](C)[C@@H]1NC(=O)[C@H](Cc2ccc(O)cc2)NC(=O)CCSSC[C@@H](C(=O)N2CCC[C@H]2C(=O)N[C@@H](CC(C)C)C(=O)NCC(N)=O)NC(=O)[C@H](CC(N)=O)NC(=O)[C@H](CCC(N)=O)NC1=O [dOT] |  | 67 ± 10% | IC50 (hOTR [7]): 1.7 nM; EC50 (hOTR [5]; IP-One assay, COS-1): 0.71 nM; EC50 (hV1bR [6]; IP-One assay, COS-1): 470 ± 422 nM; Emax (hOTR [8]): 89%; EC50 (hOTR [8]; FLIPR assay, COS-1): 0.39 nM; EC50 (hV1aR [4]; FLIPR assay, COS-1): 46.1 nM; Emax (hV1bR [9]): 100%; EC50 (hV1bR [9]; FLIPR assay, COS-1): 15.9 ± 5.96 nM; IC50 (hV1bR [10]): 351 ± 125 nM |

— US20130130985A1 (priority 2010, published 2013)
